One test concerns Renal Hypertensive Rats. As to the kind of experiment: Antihypertensive effect in awake renal hypertensive rats (ligation of left renal artery). The note with it: for ED30: Rattus norvegicus, oral, read-out: Oral Antihypertensive Effects in Renal Hypertensive Rats ED30. The format is in vivo, rat. From the text:
This procedure increases blood pressure by increasing renin production with consequent elevation of AII levels. […] Arterial blood pressure is continuously measured directly through a carotid artery cannula and recorded using a pressure transducer and a polygraph. Blood pressure levels after treatment are compared to pretreatment levels to determine the antihypertensive effects of the compounds.

A further test deals with AII receptor. As to the kind of experiment: Ligand-receptor binding assay, displacement of [125I]AII from rat adrenal cortex particulate fraction. To be noted: 0.05 nM [125I]AII, 1 h incubation, read-out: Angiotensin II Receptor Binding IC50. The protocol:
Angiotensin-II (AII) produces numerous biological responses (e.g. vasoconstriction) through stimulation of its receptors on cell membranes. […] After a 1 h incubation the reaction was terminated by addition of cold assay buffer. The bound and free radioactivity were rapidly separated through glass-fiber filters, and the trapped radioactivity was quantitated by scintillation counting.
For orientation: Loss of bound radioactivity is the signal in a displacement assay; it reports binding, not function.

In general, IC50 refers to the midpoint of a concentration-inhibition curve.

As for `CCCc1nc(CC)c(C(=O)OCc2oc(=O)oc2C)n1Cc1ccc(-c2ccccc2-c2nn[nH]n2)cc1` [Example 13, 1,3-Dioxa-5-methyl-cyclopenten-2-one-4-ylmethyl 4-ethyl-2-propyl-1-[[2'-(tetrazol-5-yl)biphenyl-4-yl]methyl]imidazole-5-carboxylate], the ED30 with Renal Hypertensive Rats turned out to be 0.1 mg/kg. The IC50 at AII receptor is 3 nM. For `CCCc1nc(CC)c(C(=O)OC(C)OC(=O)OC)n1Cc1ccc(-c2ccccc2-c2nn[nH]n2)cc1` (stereo not drawn) [Example 11], in that order: 0.02 mg/kg and 4 nM. As for `CCCc1nc(CC)c(C(=O)OCc2oc(=O)oc2-c2ccccc2)n1Cc1ccc(-c2ccccc2-c2nn[nH]n2)cc1` [Example 15], in the test with Renal Hypertensive Rats, the ED30 is 0.3 mg/kg. Moreover, on AII receptor, the IC50 is 6 nM.

Take `CCCc1nc(CC)c(C(=O)OCOC(=O)C(C)(C)C)n1Cc1ccc(-c2ccccc2-c2nnn[nH]2)cc1` [Example 5, Trimethylacetoxymethyl 4-ethyl-2-propyl-1-[[2'-(tetrazol-5-yl)biphenyl-4-yl]methyl]imidazole-5-carboxylate]: the ED30 with Renal Hypertensive Rats was 0.03 mg/kg. Further, the IC50 on AII receptor came to 2 nM. Turning to `CCCc1nc(CC)c(C(=O)OCN(C)C)n1Cc1ccc(-c2ccccc2-c2nnn[nH]2)cc1` [Example 2, (N,N-Dimethylamino)methyl 4-ethyl-2-propyl-1-[[2'-(tetrazol-5-yl)biphenyl-4-yl]methyl]imidazole-5-carboxylate], the IC50 at AII receptor is 100 nM.

In the case of `CCCc1nc(CC)c(C(=O)OC(C)OC(=O)OC(C)(C)C)n1Cc1ccc(-c2ccccc2-c2nn[nH]n2)cc1` (stereo not drawn) [Example 12], the ED30 with Renal Hypertensive Rats was 0.3 mg/kg. Further, at AII receptor, the IC50 was found to be 5 nM. As to “Trimethylacetoxymethyl 4-ethyl-2-propyl-1-[[2'-(N-trimethylacetoxymethyl(tetrazol-5-yl))biphenyl- 4-yl]methyl]imidazole-5-carboxylate [Example 6]”, the IC50 at AII receptor was determined as 20 nM. Turning to `CCCc1nc(CC)c(C(=O)OCc2oc(=O)oc2C(C)(C)C)n1Cc1ccc(-c2ccccc2-c2nn[nH]n2)cc1` [Example 14, (5-(1.1-Dimethylethyl)-1.3-dioxa-cyclopenten-2-one-4-yl)methyl 4-ethyl-2-propyl-1-[[2'-(tetrazol-5-yl)biphenyl-4-yl)methyl]imidazole-5-carboxylate], in the test with Renal Hypertensive Rats, the ED30 turned out to be 0.3 mg/kg. In addition, the IC50 on AII receptor was 3 nM. In the same order, the values of `CCCc1nc(CC)c(C(=O)OCOC(=O)OC(C)(C)C)n1Cc1ccc(-c2ccccc2-c2nnn[nH]2)cc1` [Example 9, t-Butoxycarbonyloxymethyl 4-ethyl-2-propyl-1-[[2'-(tetrazol-5-yl)biphenyl-4-yl]methyl]imidazole-5-carboxylate] are 0.02 mg/kg and 6 nM. For the molecule `CCCc1nc(CC)c(C(=O)OCOC(=O)OC)n1Cc1ccc(-c2ccccc2-c2nn[nH]n2)cc1` [Example 7], the IC50 on AII receptor worked out at 3 nM. As to “Methoxydimethylacetoxymethyl 4-ethyl-2-propyl-1-[[2'-(tetrazol-5-yl)biphenyl-4-yl]methyl]imidazole-5-carboxylate [Example 8]”, the “Oral Antihypertensive Effects in Renal Hypertensive Rats ED30” value in the test with Renal Hypertensive Rats was 0.03 mg/kg.
